Values of other authors as cited in patent publication US20130089529A1, “AGENT FOR OSTEOGENESIS USING SUBSTANCE-P AND PREPARATION PROCESS THEREOF” (UNIVERSITY-INDUSTRY COOPERATION GROUP OF KYUNGHEE UNIVERSITY, priority 2010, published 2013).

How the values were obtained:
MSCs = details: in vitro 3-D collagen gel; by inducing matrix-degrading enzymes and inhibiting their inhibitors; previous study KR 10-2006-0037176
CD29+ MSCs = details: mice without wound, intravenous injection of Substance-P, versus non-injected mice; previous study KR 10-2006-0037176

Substance-P
Migration of MSCs in 3-D collagen gel (MSCs): stimulated migration of MSCs
CD29+ MSCs mobilized into peripheral blood, relative to non-injected mice (CD29+ MSCs): approximately 15 times
